Here are results for 15 compounds from patent US20220009894A1, “1,2,3,4-TETRAHYDROQUINOXALINE DERIVATIVE, PREPARATION METHOD THEREFOR AND APPLICATION THEREOF” (Abbisko Therapeutics Co., Ltd., priority 2019, published 2022).

In one experiment the target is T1, RORγt-LBD (Homo sapiens, UniProt P51449).
T1 sequence (P51449 269-508 limits assumed): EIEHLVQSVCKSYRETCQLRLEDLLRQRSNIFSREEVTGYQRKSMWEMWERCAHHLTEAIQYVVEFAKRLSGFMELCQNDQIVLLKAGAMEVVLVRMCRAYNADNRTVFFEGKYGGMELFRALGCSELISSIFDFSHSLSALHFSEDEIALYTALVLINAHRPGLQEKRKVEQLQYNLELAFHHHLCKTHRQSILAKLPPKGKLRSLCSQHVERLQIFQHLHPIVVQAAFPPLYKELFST
The experiment can be described thus: Time-resolved fluorescence resonance energy-transfer assay (TR-FRET), co-activator peptide recruitment. The format is biochemical. Also noted: TR-FRET Biochemical Amax: unit not given here. The conditions noted are these: for pEC50: His-RORγt-LBD 30 nM, SRC peptide 500 nM, agonistic activity, averages of one or more measurements, read-out: TR-FRET Biochemical EC50/; for TR-FRET Biochemical Amax: upper activation limit, His-RORγt-LBD, SRC peptide. The procedure, abridged:
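Eu-anti-His-labelled His-RORγt-LBD (30 nM final) recruits biotin-SRC co-activator peptide (500 nM final), detected via APC-streptavidin (5 nM) and Eu-anti-His (0.25 nM). Buffer was Tris/KCl/EDTA at pH 7.0 with 0.01% Triton X-100 and 1 mM DTT. Compounds were tested at 7 points in 5-fold dilutions. Plates were incubated overnight at 4 °C then 1 h at RT, and agonism was read as the 665/615 nm ratio.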
Background: In TR-FRET formats the signal depends on donor and acceptor labels being close together.

For another experiment, the target named is T2, RORγt (Homo sapiens, UniProt P51449).
T2 construct: The plasmid of pFN26A-RORγt-LBD and pG14.35 (Promega, Cat. No. E1370) were co-transfected into HEK 293 cells; expressed in transfected cells; host or cells: HEK 293 cells (Cat. No. GNHu18)
T2 sequence (P51449 269-508 limits assumed): T1 sequence (P51449 269-508 limits assumed)
Nature of the experiment: RORγt cellular reporter gene detection assay.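 As to Cellular Reporter Assay Amax: Ursolic Acid added as 5 µL of 20 µM medium per well.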 The settings on record: 24 hrs; for pEC50: HEK 293 cells co-transfected with pFN26A-RORγt-LBD and pG14.35, in presence of antagonist Ursolic acid, top concentration 50 μM; for Cellular Reporter Assay Amax: upper activation limit, HEK 293 cells, in presence of antagonist Ursolic acid. Type of experiment: cell-based. Put shortly: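 HEK293 cells co-transfected with RORγt-LBD and luciferase reporter plasmids, treated with Ursolic acid antagonist plus compound in 4-fold dilutions from 50 μM for 24 h at 37° C. Firefly and Renilla luminescence read; EC50 and Amax from four-parameter fit.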
(A reporter such as luciferase makes a cellular process visible.)

pEC50: −log10 of the molar value.

Regarding `O=S(=O)(c1cccc(C(F)(F)F)c1)N1C[C@@H]2CN(C[C@@H](O)CO)CCN2c2ccc(/C=C/c3c(Cl)cccc3C(F)(F)F)cc21` [Example 35, (R)-3-((S)-8-((E)-2-chloro-6-(trifluoromethyl)styryl)-6-((3-(trifluoromethyl)phenyl)sulfonyl)-1,2,4,4a,5,6-hexahydro-3H-pyrazino[1,2-a]quinoxalin-3-yl)propane-1,2-diol], on RORγt-LBD, the pEC50 was 7.62 and the “TR-FRET Biochemical Amax” value was 1.15. Also, at RORγt, the pEC50 is 6.33 and the “Cellular Reporter Assay Amax” value came out at 4.2.
For `CC(C(=O)O)N1CCN2c3ccc(-c4cc(F)cc(OC(F)F)c4)cc3N(S(=O)(=O)c3cccc(C(F)(F)F)c3)C[C@@H]2C1` (stereo partly drawn) [Example 26, 2-((S)-8-(3-(difluorome-thoxy)-5-fluorophenyl)-6-((3-(trifluoromethyl)phe-nyl)sulfonyl)-1,2,4,4a,5,6-hexahydro-3H-pyrazino[1,2-a]quinoxalin-3-yl) propanoic acid] the same measures were 7.53, 0.64, 6.39 and 2.3.
As for `CC(=O)N1CCN2c3ccc(C4=CC(C)(C)OC(C)(C)C4)cc3N(S(=O)(=O)c3cccc(C(F)(F)F)c3)C[C@@H]2C1` [Example 16, (S)-1-(8-(2,2,6,6-tetramethyl-yl-3,6-dihydro-2H-pyran-4-yl)-6-((3-(trifluoromethyl)phenyl)sulfonyl)-1,2,4,4a, 5,6-hexahydro-3H-pyrazino [1,2-a]quinoxalin-3-yl) ethan-1-one], at RORγt-LBD, the pEC50 is 8.02 and the “TR-FRET Biochemical Amax” value is 0.78. At RORγt, the pEC50 was 7.23 and the “Cellular Reporter Assay Amax” value is listed as 2.0.
For `C/C(=C\c1ccc2c(c1)N(S(=O)(=O)c1cccc(C(F)(F)F)c1)C[C@@H]1CN(CC(=O)OCOC(=O)OC(C)C)CCN21)c1c(F)cccc1Cl` [Example 49, ((isopropoxycarbonyl)oxy)methyl (S,E)-2-(8-(2-(2-chloro-6-fluorophenyl)prop-1-en-1-yl)-6-((3-(trifluoromethyl)phenyl)sulfonyl)-1,2,4,4a,5,6-hexahydro-3H-pyrazino[1,2-a]quinoxalin-3-yl)acetate] the same measures were 8.26, 0.61, 6.62 and 5.2.
For `C/C(=C\c1ccc2c(c1)N(S(=O)(=O)c1cccc(C(F)(F)F)c1)C[C@@H]1CN(C(CO)(CO)C(N)=O)CCN21)c1c(F)cccc1Cl` [Example 75, (S,E)-2-(8-(2-(2-chloro-6-fluorophenyl)prop-1-en-1-yl)-6-((3-(trifluoromethyl)phenyl)sulfonyl)-1,2,4,4a,5,6-hexahydro-3H-pyrazino[1,2-a]quinoxalin-3-yl)-3-hydroxy-2-(hydroxymethyl)propanamide], in that order: 7.25, 0.87, 5.92 and 3.7.
For `O=S(=O)(c1cccc(C(F)(F)F)c1)N1CC2C[S+]([O-])CCN2c2ccc(-c3cc(F)cc(OC(F)F)c3)cc21` (centres unmarked) [Example 101, 8-(3-(difluoromethoxy)-5-fluorophenyl)-6-((3-(trifluoromethyl)phenyl)sulfonyl)-1,2,4,4a,5,6-hexahydro-[1,4]thiazino[4,3-a]quinoxaline 3-oxide] the same measures were 7.39, 0.45, 6.04 and 3.9.
`C/C(=C\c1ccc2c(c1)N(S(=O)(=O)c1cccc(C(F)(F)F)c1)C[C@@H]1CN(C(C#N)(CO)CO)CCN21)c1c(F)cccc1Cl` [Example 73, (S,E)-2-(8-(2-(2-chloro-6-fluorophenyl)prop-1-en-1-yl)-6-((3-(trifluoromethyl)phenyl)sulfonyl)-1,2,4,4a,5,6-hexahydro-3H-pyrazino[1,2-a]quinoxalin-3-yl)-3-hydroxy-2-(hydroxynethyl)propanenitrile]: at RORγt-LBD, the pEC50 is 7.40 and the “TR-FRET Biochemical Amax” value was 0.96. Besides, at RORγt, the pEC50 is 6.14 and the “Cellular Reporter Assay Amax” value is given as 4.6.
Turning to `C[C@@]1(OCCC(=O)O)CCN2c3ccc(-c4cc(F)cc(OC(F)F)c4)cc3N(S(=O)(=O)c3cccc(C(F)(F)F)c3)C[C@@H]2C1` [Example 113, 3-(((6aS,8R)-3-(3-(difluoromethoxy)-5-fluorophenyl)-8-methy 1-5-((3-(trifluoromethyl)phenyl)sulfonyl)-6,6a,7,8,9,10-hexahydro-5H-pyrido[1,2-a]quinoxalin-8-yl)oxy)propanoic acid], on RORγt-LBD, the pEC50 was 7.66 and the “TR-FRET Biochemical Amax” value came out at 0.71. Moreover, at RORγt, the pEC50 was 6.83 and the “Cellular Reporter Assay Amax” value was determined as 2.8.
For `CC(C)(C)OC(=O)C(C)(C)N1CCN2c3ccc(/C=C/c4c(Cl)cccc4C(F)(F)F)cc3N(S(=O)(=O)c3cccc(C(F)(F)F)c3)C[C@@H]2C1` [Example 52, tert-butyl (S,E)-2-(8-(2-chloro-6-(trifluoromethyl)styryl)-6-((3-(trifluoromethyl)phenyl)sul-fonyl)-1,2,4,4a,5,6-hexahydro-3H-pyrazino[1,2-a]quinoxalin-3-yl)-2-methylpropanoate], the pEC50 was 6.74 on RORγt-LBD and no more than 4.30 on RORγt. The “TR-FRET Biochemical Amax” value on RORγt-LBD is recorded as 0.50.
Consider `N#CC1(N2CCN3c4ccc(/C=C/c5c(Cl)cccc5C(F)(F)F)cc4N(S(=O)(=O)c4cccc(C(F)(F)F)c4)C[C@@H]3C2)CCC1` [Example 78, (S,E)-1-(8-(2-chloro-6-(trifluoro-methyl)styryl)-6-((3-(trifluoro-methyl)phenyl)sulfonyl)-1,2,4,4a,5,6-hexahydro-3H-pyra-zino[1,2-a]quinoxalin-3-yl)cyclo-butane-1-carbonitrile], for which, at RORγt-LBD, the pEC50 is 8.28 and the “TR-FRET Biochemical Amax” value is listed as 0.67. At RORγt, the pEC50 is 6.09 and the “Cellular Reporter Assay Amax” value is on record as 2.4.
For `CCOC(=O)C(=O)N1CCN2c3ccc(/C=C/c4c(Cl)cccc4C(F)(F)F)cc3N(S(=O)(=O)c3cccc(C(F)(F)F)c3)C[C@@H]2C1` [Example 58, ethyl (S,E)-2-(8-(2-chloro-6-(trifluoromethyl)styryl)-6-((3-(trifluoromethyl)phenyl)sulfonyl)-1,2,4,4a,5,6-hexahydro-3H-pyrazino[1,2-a]quinoxalin-3-yl)-2-oxoacetate], in that order: 7.71, 0.79, 5.86 and 4.0.
For the compound `C/C(=C\c1ccc2c(c1)N(S(=O)(=O)c1cccc(C(F)(F)F)c1)C[C@@H]1CN(C(=O)CC#N)CCN21)c1c(F)cccc1Cl` [Example 30, (S,E)-3-(8-(2-(2-chloro-6-fluorophenyl)prop-1-en-1-yl)-6-((3-(trifluoromethyl)phenyl)sulfonyl)-1,2,4,4a, 5,6-hexahydro-3H-pyrazino [1,2-a]quinoxalin-3-yl)-3-oxopropanenitrile], at RORγt-LBD, the pEC50 is 8.08 and the “TR-FRET Biochemical Amax” value was determined as 0.80. Besides, on RORγt, the pEC50 is 6.39 and the “Cellular Reporter Assay Amax” value was 4.0.
For `C/C(=C\c1ccc2c(c1)N(S(=O)(=O)c1cccc(C(F)(F)F)c1)C[C@@H]1CN(C3COC3)CCN21)c1c(F)cccc1Cl` [Example 33, (S,E)-8-(2-(2-chloro-6-fluoro-phenyl)prop-1-en-1-yl)-3-(oxetan-3-yl)-6-((3-(trifluoro-methyl)pheny4)sulfonyl)-2,3,4,4a,5,6-hexahydro-1H-pyrazino[1,2-a]quinoxaline] the same measures were 7.34, 0.93, 5.69 and 5.2.
On to `O=S(=O)(c1cccc(C(F)(F)F)c1)N1C[C@@H]2COCCN2c2ccc(-c3cc(F)cc(OC(F)F)c3)cc21` [Example 98, (R)-8-(3-(difluoromethoxy)-5-fluorophenyl)-6-((3-(trifluoromethyl)phenyl)sulfonyl)-1,2,4,4a,5,6-hexahydro-[1,4]oxazino[4,3-a]quinoxaline], for which, at RORγt-LBD, the pEC50 is 7.69 and the “TR-FRET Biochemical Amax” value is 0.75. Also, on RORγt, the pEC50 is 5.81 and the “Cellular Reporter Assay Amax” value is on record as 5.4.
For `CC(C)OC(=O)OCOC(=O)CN1CCN2c3ccc(/C=C/c4c(Cl)cccc4C(F)(F)F)cc3N(S(=O)(=O)c3cccc(C(F)(F)F)c3)C[C@@H]2C1` [Example 50, ((isopropoxycarbonyl)oxy)methyl (S,E)-2-(8-(2-chloro-6-(trifluoromethyl)styryl)-6-((3-(trifluoromethyl)phenyl)sulfonyl)-1,2,4,4a,5,6-hexahydro-3H-pyrazino[1,2-a]quinoxalin-3-yl)acetate], in that order: 8.09, 0.64, 6.17 and 6.3.
